Laboratory results from patent US10000471B2, “Pyrazole P38 map kinase inhibitors” (Respivert Limited, priority 2010, dated 2018).

Assays:
[1] = molecular target: T1, p38 MAPKα isoform (MAPK14) (Homo sapiens, UniProt Q16539); test: Enzyme inhibition assay (FRET, Z-LYTE), p38 MAPKα via MAPKAP-K2 activation; type: biochemical; details: read-out: Enzyme Inhibition IC50 p38α
T1 construct: purchased Invitrogen
Experimental: (§1) The enzyme inhibitory activities of compounds disclosed herein were determined by fluorescence resonance energy transfer (FRET) using synthetic peptides labelled with both donor and acceptor fluorophores (Z-LYTE, Invitrogen Ltd., Paisley, UK). Recombinant, phosphorylated p38 MAPKγ (MAPK12:Invitrogen) was diluted in HEPES buffer, mixed with the test compound at the desired final concentrations and incubated for 2 hr at RT. The FRET peptide (2 μM) and ATP (100 μM) were added to the enzyme/compound mixture and incubated for 1 hr. Development reagent (protease) was added for 1 hr prior to detection in a fluorescence microplate reader (Varioskan® Flash, ThermoFisher Scientific). The site-specific protease cleaves non-phosphorylated peptide only and eliminates the FRET signal. Phosphorylation levels of each reaction were calculated using the ratio of coumarin emission (donor) over fluorescein emission (acceptor) for which high ratios indicate high phosphorylation and low ratios indicate low phosphorylation levels. The percentage inhibition of each reaction was calculated relative to non-inhibited control and the 50% inhibitory concentration (IC50 value) then calculated from the concentration-response curve.
For the p38 MAPKα isoform (MAPK14: Invitrogen), enzyme activity was evaluated indirectly by determining the level of activation/phosphorylation of the down-stream molecule, MAPKAP-K2. The p38 MAPKα protein was mixed with the test compound for 2 hr at RT. […] Development reagent was then added and the mixture incubated for 1 hr before detection by fluorescence completed the assay protocol.

p38 MAPKγ (MAPK12) = molecular target: T2, p38 MAPKγ (MAPK12) (Homo sapiens, UniProt P53778); test: Enzyme inhibition assay (FRET, Z-LYTE), p38 MAPKγ; type: biochemical; details: read-out: Enzyme Inhibition IC50 p38γ
T2 construct: purchased Invitrogen
T2 sequence (P53778 1-367): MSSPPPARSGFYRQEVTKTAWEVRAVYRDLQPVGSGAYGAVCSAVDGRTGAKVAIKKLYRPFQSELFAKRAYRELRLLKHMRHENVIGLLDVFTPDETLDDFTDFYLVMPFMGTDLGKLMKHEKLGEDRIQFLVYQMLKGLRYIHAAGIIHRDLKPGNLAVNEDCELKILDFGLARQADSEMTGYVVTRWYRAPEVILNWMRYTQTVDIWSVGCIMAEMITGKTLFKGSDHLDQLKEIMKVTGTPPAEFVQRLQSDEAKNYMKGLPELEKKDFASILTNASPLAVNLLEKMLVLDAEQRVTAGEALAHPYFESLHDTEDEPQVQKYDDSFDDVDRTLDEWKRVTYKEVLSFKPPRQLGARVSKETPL
Experimental: as §1

[2] = system: TNFα release in THP-1 cells; test: LPS-induced TNFα release in THP-1 cells; type: cell-based, human; details: Homo sapiens
Experimental: LPS-Induced TNFα Release in THP-1 Cells
THP-1 cells, a human monocytic cell line, were stimulated with 3 μg/mL of LPS (from E. Coli; 0111:B4, Sigma) for 4 hr and the supernatant collected for determination of the TNFα concentration by sandwich ELISA (Duo-set, R&D systems). The inhibition of TNFα production was calculated at each concentration by comparison with vehicle control. The 50% inhibitory concentration (IC50) was determined from the resultant concentration-response curve.

[3] = system: TNFα release in d-U937 cells; test: LPS-induced TNFα release in d-U937 cells; type: cell-based, human; details: Homo sapiens, dU937, relative to 10 μg/mL BIRB796, read-out: LPS/TNFα REC50 d-U937
Experimental: (§2) LPS-Induced TNFα/IL-8 Release in d-U937 Cells
(§3) U937 cells, a human monocytic cell line, were differentiated to macrophage-type cells by incubation with phorbol myristate acetate (PMA; 100 ng/ml) for 48 to 72 hr. Cells were pre-incubated with final concentrations of test compound for 2 hr and were then stimulated with 0.1 μg/mL of LPS (from E. Coli: O111:B4, Sigma) for 4 hr. The supernatant was collected for determination of TNFα and IL-8 concentrations by sandwich ELISA (Duo-set, R&D systems). The inhibition of TNFα production was calculated as a percentage of that achieved by 10 μg/mL of BIRB796 at each concentration of test compound by comparison against vehicle control. The relative 50% effective concentration (REC50) was determined from the resultant concentration-response curve. The inhibition of IL-8 production was calculated at each concentration of test compound by comparison with vehicle control. The 50% inhibitory concentration (IC50) was determined from the resultant concentration-response curve.

[4] = system: IL-8 release in d-U937 cells; test: LPS-induced IL-8 release in d-U937 cells; type: cell-based, human; details: Homo sapiens, dU937
Experimental: as §2, §3

[5] = system: ICAM-1 induction in BEAS2B cells; test: Poly I:C-induced ICAM-1 induction in BEAS2B cells; type: cell-based, human; details: Homo sapiens, BEAS-2B, read-out: PolyIC/ICAM1 IC50 BEAS2B
Experimental: Poly I:C-Induced ICAM-1 Induction in BEAS2B Cells
Poly I:C (1 μg/mL) (Invivogene Ltd., San Diego, Calif.) was transfected into BEAS2B cells (human bronchial epithelial cells, ATCC) with Oligofectamine (Invitrogen, Carlsbad, Calif.). Cells were pre-incubated with final concentrations of test compounds for 2 hr and the level of ICAM1 expression on the cell surface was determined by cell-based ELISA. At a time point 18 hr after poly I:C transfection, cells were fixed with 4% formaldehyde in PBS and then endogenous peroxidase was quenched by the addition of 0.1% sodium azide and 1% hydrogen peroxide. Cells were washed with wash-buffer (0.1% Tween in PBS: PBS-Tween). and after blocking the wells with 5% milk in PBS-Tween for 1 hr, the cells were incubated with anti-human ICAM-1 antibody (Cell Signaling Technology, Danvers, Mass.) in 1% BSA PBS overnight at 4° C. The cells were washed with PBS-Tween and incubated with the secondary antibody (HRP-conjugated anti-rabbit IgG, Dako Ltd., Glostrup, Denmark). The ICAM-1 signal was detected by adding substrate and reading the absorbance at 450 nm against a reference wavelength of 655 nm using a spectrophotometer. The cells were then washed with PBS-Tween and total cell numbers in each well were determined by reading absorbance at 595 nm after Crystal Violet staining and elution by 1% SDS solution. The measured OD 450-655 readings were corrected for cell number by dividing with the OD595 reading in each well. The inhibition of ICAM-1 expression was calculated at each concentration of test compound by comparison with vehicle control. The 50% inhibitory concentration (IC50) was determined from the resultant concentration-response curve.

[6] = system: Differentiated U937 cells; test: Cell viability MTT assay; type: cell-based, human; details: negative = apparent increase in viability; for MTT Assay (Viability) 4 h d-U937, percentage loss of cell viability: 4 hr in 5% FCS; for MTT Assay (Viability) 24 h d-U937, percentage loss of cell viability: 24 h in 10% FCS
Experimental: Differentiated U937 cells were pre-incubated with each test compound under two protocols: the first for 4 hr in 5% FCS and the second in 10% FCS for 24 h. The supernatant was replaced with 200 μL of new media and 10 μL of MTT stock solution (5 mg/mL) was added to each well. After incubation for 1 hr the media were removed, 200 μL of DMSO was added to each well and the plates were shaken lightly for 1 hr prior to reading the absorbance at 550 nm. The percentage loss of cell viability was calculated for each well relative to vehicle (0.5% DMSO) treatment. Consequently an apparent increase in cell viability for drug treatment relative to vehicle is tabulated as a negative percentage.

T1 sequence (Q16539 whole entry, canonical isoform): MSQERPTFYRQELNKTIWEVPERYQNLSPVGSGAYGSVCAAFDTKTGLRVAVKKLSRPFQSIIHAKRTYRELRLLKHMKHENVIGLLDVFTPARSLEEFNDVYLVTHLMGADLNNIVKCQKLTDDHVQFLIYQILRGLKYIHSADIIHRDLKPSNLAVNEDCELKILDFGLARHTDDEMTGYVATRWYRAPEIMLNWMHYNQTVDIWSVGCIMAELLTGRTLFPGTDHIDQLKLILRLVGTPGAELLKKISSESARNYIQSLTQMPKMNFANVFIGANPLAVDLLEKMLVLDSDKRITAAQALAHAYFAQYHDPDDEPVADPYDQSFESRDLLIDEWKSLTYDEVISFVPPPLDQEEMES

Compound | IC50 [1] | IC50 (p38 MAPKγ (MAPK12)) | IC50 [2] | EC50 [3] | IC50 [4] | IC50 [5] | MTT Assay (Viability) 4 h d-U937, percentage loss of cell viability [6] | MTT Assay (Viability) 24 h d-U937, percentage loss of cell viability [6]
CN(C)CCNC(=O)Nc1cc(Oc2ccc(NC(=O)Nc3cc(C(C)(C)C)nn3-c3ccc(CO)cc3)c(Cl)c2Cl)ccn1 [Example 70, 1-(3-tert-butyl-1-(4-hydroxymethylphenyl)-1H-pyrazol-5-yl)-3-(2,3-dichloro-4-(2-(3-(2-(dimethylamino)ethyl)ureido)pyridin-4-yloxy)phenyl)urea] | 3.5 nM | 30.1 nM | 2.4 nM | 1.5 nM | 5.7 nM | 10.1 nM | 6.1% | 94.1%
CN(C)CCCC(=O)Nc1cc(Oc2ccc(NC(=O)Nc3cc(C(C)(C)C)nn3-c3ccc(CO)cc3)c(Cl)c2Cl)ccn1 [Example 47, N-(4-(4-(3-(3-tert-butyl-1-(4-hydroxymethylphenyl)-1H-pyrazol-5-yl)ureido)-2,3-dichlorophenoxy)pyridin-2-yl)-4-(dimethylamino) butanamide] | 2.2 nM | 5.9 nM | 0.5 nM | 1.6 nM | 8.2 nM | 6.4 nM | −42.5% | 85.0%
COCC(=O)Nc1cc(Oc2ccc(NC(=O)Nc3cc(C(C)(C)C)nn3-c3cccc(CO)c3)c(Cl)c2Cl)ncn1 [Example 92, N-(6-(4-(3-(3-tert-butyl-1-(3-hydroxymethylphenyl)-1H-pyrazol-5-yl)ureido)-2,3-dichlorophenoxy)pyrimidin-4-yl)-2-methoxyacetamide] | 25.8 nM | 165 nM | 14.2 nM | 0.9 nM | 9.9 nM | 1.9 nM | −14.4% | 81.0%
COCC(=O)Nc1cc(Oc2ccc(NC(=O)Nc3cc(C(C)(C)C)nn3-c3ccc(C)cc3)c(F)c2F)ccn1 [Example 34, N-(4-(4-(3-(3-tert-butyl-1-p-tolyl-1H-pyrazol-5-yl)ureido)-2,3-difluorophenoxy)pyridin-2-yl)-2-methoxyacetamide] | 134 nM | 24 nM | 0.4 nM | 0.3 nM | 2.2 nM | 2.5 nM | 2.4% | 82.1%
CNC(=O)Nc1cc(Oc2ccc(NC(=O)Nc3cc(C(C)(C)C)nn3-c3ccc(OC)cc3)c3cccnc23)ccn1 [Example 58, 1-(3-tert-butyl-1-(4-methoxyphenyl)-1H-pyrazol-5-yl)-3-(8-(2-(3-methylureido)pyridin-4-yloxy)quinolin-5-yl)urea] | 34.1 nM | 176 nM | 2.2 nM | 2.1 nM | 3.3 nM | 13.2 nM | −12.4% | −29.0%
COCC(=O)Nc1cc(Oc2c(NC(=O)Nc3cc(C(C)(C)C)nn3-c3ccc(C)cc3)ccc(F)c2F)ccn1 [Example 88, N-(4-(6-(3-(3-tert-butyl-1-p-tolyl-1H-pyrazol-5-yl)ureido)-2,3-difluorophenoxy)pyridin-2-yl)-2-methoxyacetamide] | 2090 nM | > 17700 nM | 989 nM | 27 nM | > 1770 nM | 1690 nM | 12.3% | 10.0%

Now from value to compound, other results behind:

IC50 [1] | IC50 (p38 MAPKγ (MAPK12)) | IC50 [2] | EC50 [3] | IC50 [4] | Compound | IC50 [5] | MTT Assay (Viability) 4 h d-U937, percentage loss of cell viability [6] | MTT Assay (Viability) 24 h d-U937, percentage loss of cell viability [6]
54.9 nM | 46.5 nM | 0.3 nM | 0.2 nM | 1.6 nM | COCC(=O)Nc1cc(Oc2ccc(NC(=O)Nc3cc(C(C)(C)C)nn3-c3ccc(O)cc3)c(Cl)c2Cl)ccn1 [Example 41, N-(4-(4-(3-(3-tert-butyl-1-(4-hydroxyphenyl)-1H-pyrazol-5-yl)ureido)-2,3-dichlorophenoxy)pyridin-2-yl)-2-methoxyacetamide] | 1.4 nM | −24.0% | 76.5%
46.9 nM | 35.8 nM | 1.8 nM | 1.3 nM | 7.7 nM | CNC(=O)Nc1cc(Oc2ccc(NC(=O)Nc3cc(C(C)(C)C)nn3-c3ccc(CO)c(OC)c3)c(Cl)c2Cl)ccn1 [Example 53, 1-(3-tert-butyl-1-(4-hydroxymethyl-3-methoxy-phenyl)-1H-pyrazol-5-yl)-3-(2,3-dichloro-4-(2-(3-methylureido)pyridin-4-yloxy)phenyl)urea] | 2.2 nM | −1.1% | 87.8%
16.5 nM | 36 nM | 1.2 nM | 0.7 nM | 2.2 nM | COCC(=O)Nc1cc(Oc2ccc(NC(=O)Nc3cc(C(C)(C)C)nn3-c3ccc(CO)cc3)c(Cl)c2Cl)ccn1 [Example 49, N-(4-(4-(3-(3-tert-butyl-1-(4-hydroxymethylphenyl)-1H-pyrazol-5-yl)ureido)-2,3-dichlorophenoxy)pyridin-2-yl)-2-methoxyacetamide] | 1.5 nM | −4.8% | 92.2%
